According to patent US20050191282A1, “Method of cryopreserving pancreatic islet cells” (priority 2004, published 2005):

How the values were obtained:
isolated rat islets [1] = experiment: Recovery of intact islets after cryopreservation and thawing (islet counting after Dithizone staining); format: cell-based; set-up: key: Severe = +++; Mild = +; conditions: 2M DMSO, 3M glycerol, 5% PEG or 10% PVP
Description: (§1) The present invention is based on the hypothesis that the low molecular weight (MW) compounds, DMSO and glycerol, permeate the cell and interact hydrophobically with intracellular proteins thereby perturbing the cyto-skeletal architecture of frozen cells, and diminishing islet cell integrity and function. Isolated rat islets were cultured overnight (16-24 hr) at 37° C., in RPMI medium supplemented with 10% fetal calf serum and 1% mixture of Penicillin/Streptomycin. Using a programmable temperature controller, samples of pre-counted islets were then frozen under liquid nitrogen, in the presence of either 2M DMSO (MW=0.078 kD), 3M glycerol (MW=0.092 kD), 5% polyethylene glycol (PEG, MW=20 kD), or 10% polyvinylpyrrolidone (PVP, MW=40 kD), and stored at −80° C. for 1 week. Following thawing, intact islet recovery was determined by islet counting after Dithizone staining. Islet function was assessed by determination of glucose-stimulated insulin secretion in perifusion experiments with Krebs-Ringer bicarbonate buffer, pH 7.4, containing either basal (3.3 mM) or high (16.7 mM) glucose concentrations. After thawing samples of frozen islets, the mean±SEM % intact islet recovery was higher with PVP compared to DMSO (82±4.6 versus 62.7±3.1% respectively, p<0.005, n=9). […]

isolated rat islets [2] = experiment: Glucose-stimulated insulin secretion by perifused islets after cryopreservation; format: cell-based
Description: FIG. 2 graphs glucose stimulation of insulin secretion in islets cryopreserved with different cryoprotectants. After one week of cryopreservation, islets were thawed and cultured overnight before being tested for response to 16.7 mM glucose stimulation. The 16.7 mM glucose stimulated insulin secretion was assessed by normalizing data as percent basal insulin secretion for each group of islets. Data represent mean±SEM.
as §1, with “Isolated rat islets were cultured overnight (16-24 hr) at 37° C., in RPMI medium supplemented with 10% fetal calf serum and 1% mixture of Penicillin/Streptomycin.” left out, “concentrations.” for “concentrations. After thawing samples of frozen islets, the mean±SEM % intact islet recovery was higher with PVP compared to DMSO (82±4.6 versus 62.7±3.1% respectively, p<0.005, n=9).”

islets = conditions: DMSO as cryoprotectant, compared to freshly isolated islets; cited from earlier work

SMILES: C[S+](C)[O-] [DMSO, Dimethylsulfoxide]
- Fragment (fragmentation of islets after thawing) (isolated rat islets [1]): +++
- function of cryopreserved islets compared to freshly isolated islets (isolated rat islets [2]): impaired
- loss in the number and function of islets after thawing (islets): 30-50%

SMILES: OCC(O)CO [GLY, glycerol]
- Fragment (fragmentation of islets after thawing) (isolated rat islets [1]): +++
- function of cryopreserved islets compared to freshly isolated islets (isolated rat islets [2]): impaired
